Test results reported in PMC10888192, “New Derivatives of 1-(3-Methyl-1-Benzofuran-2-yl)Ethan-1-one: Synthesis and Preliminary Studies of Biological Activity” (International Journal of Molecular Sciences, 2024).

Tests used:
[1] = system: HaCaT cells (human immortal keratinocytes); assay: MTT cytotoxicity assay, HaCaT; assay type: cell-based; details: 72 h incubation, mean ± SD
Protocol: (§1) The cell viability was analyzed at the following six concentrations of compounds: 5, 10, 20, 40, 60 and 100 µM after 72 h incubation.
(§2) Additionally, to determine the safety profile of the tested compounds, the therapeutic index (TI) (the ratio of IC50 value in HaCaT to cancer cells K562) was calculated. […] The goal of conducting the MTT assay in this research was to select benzofuran derivatives, which manage to reduce viability of cancer cells while exposing mild effects on normal healthy cells.
(§3) The cytotoxicity was evaluated by MTT reduction assay, which measures mitochondrial respiratory function. The test was performed based on the method described by Präbst et al.. Cells (1 × 10^4/well), in logarithmic phase, were seeded into 96-well plates in appropriate medium. After 24 h, cells were exposed to test compounds. […] After 72 h, the medium with the compounds was completely removed and MTT solution (0.5 mg/mL) in fresh medium without serum was added to each well. Plates with cells were incubated for 4 h at 37 °C in the dark. Then, MTT solution was removed and replenished with 0.1 mL DMSO: isopropanol (1:1) mixture to dissolve the generated formazan crystals. The optical density was measured with a […] GO (ThermoScientific) microplate reader at 570 nm. Replicates of three wells for each dosage, including vehicle control, were analyzed for each experiment. The experiments were conducted in triplicate. Control cells which were only treated with respective medium were used as the 100% viability value. […] Additionally, to determine the safety profile of the test compounds, therapeutic indexes (TI) (the ratio of IC50 values in HaCat to cancer cells (K562, PC3, SW620, Cack-1)) were calculated.

[2] = system: SW620 cells (human metastatic colon cancer); assay: MTT cytotoxicity assay, SW620; assay type: cell-based; details: SW-620, 72 h incubation, mean ± SD
Protocol: as §1, §2, §3

[3] = system: IL-6 secretion by K562 cells; assay: IL-6 release, ELISA; assay type: cell-based, human; details: for Il-6 Concentration in K562 Cells in 72 h: ELISA, culture medium, IC50 concentration, mean ± SD; for Reduction of the level of IL-6: K562, IC50 concentration, 72 h
Excerpt: Among many soluble factors present in the plasma and tissue microenvironment in patients with chronic lymphatic leukemia recent studies confirmed a presence of few types of interleukin (IL) including 4, 6 and 10. […] IL-6 is a member of a big family of cytokines and is predominantly excreted by T cells and macrophages to stimulate immune response during infection. Studies have shown that elevated levels of serum IL-6 is positively correlated with worse clinical outcomes in patients with different types of cancer, including leukemia. IL-6 also plays a key role in the chemoresistance of malignancies. Based on these findings we checked the effect of our new benzofuran derivatives on IL-6 secretion by K562 cells. […] On the other hand, K562 cells like other erythroid and megakaryocytic cells release IL-6 in a constitutive way.
K562 cells were treated with IC50 concentrations of the tested compounds. After 72 h, medium was collected and the IL-6 level was measured using an enzyme-linked immunosorbent assay, in accordance with the manufacturer’s protocol. The resulting data were expressed as mean ± SD from three independent experiments performed in triplicate.

[4] = system: Cacki-1 cells (human clear cell renal cell carcinoma); assay: MTT cytotoxicity assay, Cacki-1; assay type: cell-based; details: 72 h incubation
Protocol: as §1, §2, §3

[5] = system: K562 cells (human chronic myelogenous leukemia); assay: MTT cytotoxicity assay, K562; assay type: cell-based; details: 72 h incubation, mean ± SD
Protocol: as §1, §2, §3

[6] = system: reactive oxygen species (H2O2) in K562 cells; assay: ROS generation (DHR 123 and DCFH-DA fluorescence); assay type: cell-based, human; details: K562, IC50 concentration, 12 h incubation, DHR123 or DCF-DA, compared with untreated cells
Excerpt: The resulting data were expressed as mean ± SD from three independent experiments performed in triplicate.

[7] = system: caspases 3 and 7 in K562 cells; assay: Caspase-Glo 3/7 assay; assay type: cell-based, human; details: IC50 concentration; for Effect on activity of caspases 3 and 7: 4 h incubation
Excerpt: ROS may play a different function in different stages of cancer. ROS might enhance cell growth and proliferation through the induction of various cell signaling pathways involving nuclear factor-kappa B (NF-κB) and STAT3, hypoxia-inducible factor 1α (HIF1α), kinases, growth factors, cytokines and many other proteins. On the other hand, the accumulation of ROS can induce cell damage and promote apoptosis. It has also been confirmed that elevated ROS concentration may cause mitochondrial membrane depolarization and facilitate increased cellular pro-apoptotic molecules releasing. […] As has been previously reported, lead compound 1,1′-[3-(bromomethyl)-5,6-dimethoxy-1-benzofuran-2,7-diyl] induces apoptosis in human leukemia cells. […] We used the Annexin V-FITC test, which allows us to detect the early structural changes in cellular membrane which occur during apoptosis. […] In the control sample almost 94% of cells were neither apoptotic nor necrotic. […] As has been previously written, the MTT test assesses the toxicity of tested compounds based on the activity of mitochondrial enzymes. […] Our results are in agreement with studies conducted by Liu et al. and Su et al. They report that the benzofuran derivatives ACDB and BL-038 induce apoptosis of human chandrosarcoma cells through ROS generation, mitochondria and endoplasmic reticulum dysfunction. BL-038 increases ROS production and dysregulates mitochondria membrane potential. This causes cytochrome C to be released from mitochondria and caspase activation. Similar effects have been observed for 2-amino-3-(2-chlorophenyl)-6-(4-dimethylaminophenyl) benzofuran-4-yl acetate (ACDB). It is well documented that disruption of the mitochondrial membrane as a result of, for example, the action of free radicals causes the release of cytochrome C. In the next step, cytochrome C binds to Apaf-1 (apoptotic protease activating factor 1) and it becomes the main component of apoptosome. The binding of cytochrome C with Apaf-1 is a critical step in apoptosome formation because it is responsible for the induction of intrinsic cell death pathway triggered by caspase activation. The observed increased concentration of hydrogen peroxide in cells exposed to both tested compounds might be a key factor for the molecular mechanism of apoptosis. Hydrogen peroxide can affect the redox state of cytochrome C. In addition to the effect of hydrogen peroxide on the iron atom in the cytochrome, it can also affect the activation of caspases. In order to estimate the effect of K562 exposure on the tested compounds as well as to confirm apoptotic properties of new benzofurans, we analyzed the effect of the compounds caspases 3 and 7 activities. […] We observed significant changes of activity after 48 h exposure. […] The caspase cascade responsible for executing cell death following cytochrome C release is well documented. Available research indicates, first of all, the key role of caspases 3 and 7 as mediators in the apoptosis through the intrinsic (mitochondrial) cell death pathway. […] They have shown that caspase 9 is responsible for mitochondrial morphological changes and ROS production by cleaving and activating Bid into tBid. Following caspase 9 activation, caspase 3 […] ROS generation and is essential for the efficient execution of apoptosis, whereas effector caspase 7 is needed for apoptotic cell detachment. […]
The induction of cell apoptosis was also analyzed by luminescent assay with the Caspases-Glo3/7 assay system (Promega). […]

SMILES | IC50 [1] | IC50 [2] | Il-6 Concentration in K562 Cells in 72 h [3] | Reduction of the level of IL-6 [3] | IC50 [4] | IC50 [5] | Increase of fluorescence intensity (ROS generation) [6] | Effect on activity of caspases 3 and 7 [7] | Increase of activity of caspases 3 and 7 ([7]; 12 h exposure) | Increase of activity of caspases 3 and 7 ([7]; 48 h exposure)
COc1cc(OC)c2c(CBr)c(C(C)=O)oc2c1 [Compound 6, 1-[3-(Bromomethyl)-4,6-Dimethoxy-1-Benzofuran-2-yl]Ethanone] | 12.4 ± 1.27 µM | > 100 µM | 5.791 ± 2.048 | 50% | > 100 µM | 3.83 ± 0.6 µM | two-fold increase in fluorescence intensity | did not affect the activity of caspases 3 and 7 | 26% | 
CCOc1cccc2oc(C(C)=O)c(CBr)c12 [Compound 8, 1-[3-(Bromomethyl)-4-Ethoxy-1-Benzofuran-2-yl]Ethanone] | 23.6 ± 10.7 µM | > 100 µM | 6.958 ± 3.623 | 40% | > 100 µM | 2.59 ± 0.88 µM | statistically significant increase of fluorescence intensity | did not affect the activity of caspases 3 and 7 | 27% | 13%
